In the supplement of paper PMC10307832:

How the values were obtained:
Experiment in all cases: relative viability (nuclei count vs DMSO), 5 days (fraction); higher = more cells survive
[1] = compound: NCC(=O)Nc1ccc(-n2nc(C(F)(F)F)cc2-c2ccc3c(ccc4ccccc43)c2)cc1 + COc1cccc2cc(-c3nc([C@H]4CC[C@H](C(=O)O)CC4)n4ncnc(N)c34)[nH]c12 [OSI-027] (partner 0.5 µM)
In short: (§1)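 Relative viability divides the nuclei count in treated wells by that in vehicle wells. Lung cancer cell lines were seeded in 1536-well plates, dosed by pin tool the next day, and fixed and stained after 5 days in one step with final 0.05% Triton X-100, 1% formaldehyde and 1 ug/ml Hoechst. Dosing was a single drug or a fixed anchor-drug dose plus five library-drug doses (not always all listed) in √10 steps, and values are medians of duplicate plates imaged at 4×.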

[2] = compound: NCC(=O)Nc1ccc(-n2nc(C(F)(F)F)cc2-c2ccc3c(ccc4ccccc43)c2)cc1 + C[C@@H](Oc1cc(-c2cnn(C3CCNCC3)c2)cnc1N)c1c(Cl)ccc(F)c1Cl [Crizotinib] (partner 1 µM)
In short: as §1

[3] = compound: NCC(=O)Nc1ccc(-n2nc(C(F)(F)F)cc2-c2ccc3c(ccc4ccccc43)c2)cc1 + Nc1ncn([C@H]2C[C@H](O)[C@@H](CO)O2)c(=O)n1 [Decitabine] (partner 2 µM)
In short: as §1

[4] = compound: NCC(=O)Nc1ccc(-n2nc(C(F)(F)F)cc2-c2ccc3c(ccc4ccccc43)c2)cc1 + O=C(c1cc(Cc2n[nH]c(=O)c3ccccc23)ccc1F)N1CCN(C(=O)C2CC2)CC1 [Olaparib] (partner 8 µM)
In short: as §1

| Cell Line | relative viability ([1]; first compound 0.02 µM) | relative viability ([1]; first compound 0.06325 µM) | relative viability ([1]; first compound 0.2 µM) | relative viability ([1]; first compound 0.6325 µM) | relative viability ([1]; first compound 2 µM) | relative viability ([2]; first compound 0.02 µM) | relative viability ([2]; first compound 0.06325 µM) | relative viability ([2]; first compound 0.2 µM) | relative viability ([2]; first compound 0.6325 µM) | relative viability ([2]; first compound 2 µM) | relative viability ([3]; first compound 0.02 µM) | relative viability ([3]; first compound 0.06325 µM) | relative viability ([3]; first compound 0.2 µM) | relative viability ([3]; first compound 0.6325 µM) | relative viability ([3]; first compound 2 µM) | relative viability ([4]; first compound 0.02 µM) | relative viability ([4]; first compound 0.06325 µM) | relative viability ([4]; first compound 0.2 µM) | relative viability ([4]; first compound 0.6325 µM) | relative viability ([4]; first compound 2 µM) |
| --- | --- | --- | --- | --- | --- | --- | --- | --- | --- | --- | --- | --- | --- | --- | --- | --- | --- | --- | --- | --- |
| LXF-289 | 0.67 | 0.801 | 0.787 | 0.819 | 0.713 | 0.834 | 0.821 | 0.799 | 0.823 | 0.779 | 0.376 | 0.388 | 0.371 | 0.416 | 0.333 | 1.05 | 1.11 | 1.03 | 1.04 | 1.07 |
| H3255 | 0.557 | 0.617 | 0.629 | 0.667 | 0.596 | 0.936 | 0.846 | 0.884 | 0.806 | 0.894 | 0.669 | 0.479 | 0.643 | 0.715 | 0.667 | 0.593 | 0.593 | 0.577 | 0.607 | 0.622 |
| 201T | 0.806 | 0.769 | 0.724 | 0.649 | 0.606 | 1.02 | 1.02 | 1.01 | 1.03 | 0.984 | 0.838 | 0.846 | 0.901 | 0.87 | 0.846 | 0.867 | 0.868 | 0.856 | 0.879 | 0.844 |
| NCI-H2126 | 0.773 | 0.753 | 0.726 | 0.741 | 0.631 | 1 | 1 | 1.05 | 1.01 | 1.04 | 0.568 | 0.568 | 0.583 | 0.596 | 0.572 | 0.864 | 0.877 | 0.925 | 0.928 | 0.913 |
| HOP-62 | 0.852 | 0.801 | 0.828 | 0.778 | 0.812 | 0.579 | 0.921 | 0.942 | 0.884 | 0.927 | 0.214 | 0.228 | 0.225 | 0.206 | 0.192 | 0.284 | 0.361 | 0.381 | 0.408 | 0.431 |
| NCI-H520 | 0.238 | 0.265 | 0.296 | 0.243 | 0.234 | 0.787 | 1.09 | 0.889 | 0.687 | 0.694 | 0.562 | 0.546 | 0.505 | 0.449 | 0.587 | 0.404 | 0.285 | 0.377 | 0.339 | 0.334 |
| NCI-H1755 | 0.711 | 0.68 | 0.685 | 0.71 | 0.759 | 0.955 | 0.863 | 0.904 | 0.891 | 0.862 | 0.692 | 0.739 | 0.686 | 0.701 | 0.727 | 0.898 | 0.854 | 0.933 | 0.914 | 0.923 |
| NCI-H2023 | 0.381 | 0.422 | 0.428 | 0.422 | 0.351 | 0.737 | 0.751 | 0.619 | 0.703 | 0.702 | 0.229 | 0.211 | 0.23 | 0.209 | 0.219 | 0.604 | 0.543 | 0.516 | 0.401 | 0.464 |
| NCI-H2009 | 0.573 | 0.613 | 0.703 | 0.604 | 0.609 | 1.06 | 1.03 | 1.07 | 1.09 | 1.04 | 0.337 | 0.457 | 0.409 | 0.349 | 0.408 | 0.681 | 0.72 | 0.75 | 0.657 | 0.679 |
